Patent US11826399B2, “Chlorotoxin agents and uses thereof” (Eisai Inc., priority 2017, dated 2023)

Test: Biodistribution after single Carboxylated CTX-Cryptophycin dose in NRP1 WT or KO PC-3 xenografts in SCID mice
Format: in vivo, mouse
Conditions: single 0.6 mg/kg Carboxylated CTX-Cryptophycin IV
Experimental: Cells used were human prostate cancer cells, PC-3 (ATCC® CRL-1435™) engineered at WuXi AppTec to generate an isogenic pair of cell lines WT (PC-3-sg1-4 WT cells) and KO (PC-3-sg1-9 KO cells) for NRP1. Mice used were female, ˜6 week old, immune compromised NOD. SCID from Charles River laboratories. Identical experiments were performed side by side in the isogenic xenograft models. Drug administration was performed when tumor size reached ˜300 to 500 mm^3. A single dose of Carboxylated CTX-Cryptophycin at 0.6 mg/kg was administered (to mimic dose where differential efficacy was observed) intravenously in the following vehicle: 10% EtOH, 5% Tween80 and 85% saline. Animals were euthanized and whole blood (cardiac puncture) and tumor tissues harvested at predetermined time points from 5 min to 96 h post-dose (n=3 mice per time point). Blood samples were centrifuged to obtain plasma and subsequently stored at −20° C. or lower pending analysis. Tumors were harvested by removing the entire specimen from surrounding tissues. Specimens were immediately rinsed with normal saline solution, blotted dry, then weighed and stored at −20° C. or lower pending analysis. Tumor tissue was cryofractured using the Covaris Cryoprep System (Covaris, Inc.). Once pulverized, samples were lysed in 3:1 (v:w) 1×PBS containing 1× Halt™ Protease Inhibitor Cocktail and 1×EDTA solution (Thermo Scientific, Product No. 78430). Plasma and homogenized tissue samples were extracted via protein precipitation with 3:1 (v:v) methanol:acetonitrile 1:1 (v:v) containing 0.1% acetic acid. […] Pharmacokinetic (PK) parameters were calculated using non-compartmental analysis in C3PO (a proprietary Eisai compound database and pharmacokinetic analysis tool). Mean plasma and tissue concentrations were used to calculate mean PK parameters.

COc1ccc(CC2NC(=O)C=CCC(C(C)C3OC3c3ccc(CN4CCN(CCC(C)(C)SC)CC4)cc3)OC(=O)C(CC(C)C)NC(=O)C(C)(C)CNC2=O)cc1Cl (stereo not shown) [Cryptophycin Metabolite 1]
Tumor AUC0-96 h of Cryptophycin Metabolite 1 (NRP1 KO tumors): 385 pmol·h/g
Tumor tmax of Cryptophycin Metabolite 1 (NRP1 KO tumors): 24 h
Tumor AUC0-96 h of Cryptophycin Metabolite 1 (NRP1 WT tumors): 1494 pmol·h/g
Tumor tmax of Cryptophycin Metabolite 1 (NRP1 WT tumors): 48 h
